# Test results reported in ChEMBL document CHEMBL6092147, “Design of inhibitors of SARS-CoV-2 papain-like protease deriving from GRL0617: Structure-activity relationships” (Bioorg Med Chem, 2024).
# Experiments:
# [1] = target: T1, Replicase polyprotein 1ab (Severe acute respiratory syndrome coronavirus 2, UniProt P0DTD1); assay: Inhibition of SARS-CoV-2 papain-like protease
# [2] = target: T1, Replicase polyprotein 1ab; assay: Inhibition of SARS-CoV-2 papain-like protease (PLpro) by FRET analysis
# [3] = target: T1, Replicase polyprotein 1ab; assay: Inhibition of SARS-CoV-2 Main protease
# [4] = target: T1, Replicase polyprotein 1ab; assay: Inhibition of SARS-CoV2 PLpro extracted from Escherichia coli using Z-RLRGG-AMC as substrate incubated for 30 mins by fluorescence based analysis
# [5] = target: T1, Replicase polyprotein 1ab; assay: Inhibition of SARS-CoV-2 papain-like protease (PLpro) extracted from Escherichia coli BL21 (DE3) cells using RLRGG-AMC as substrate preincubated for 10 mins followed by substrate addition measured for 35 mins by FRET analysis
# [6] = target: T1, Replicase polyprotein 1ab; assay: Binding affinity to SARS-CoV-2 papain-like protease extracted from Escherichia coli BL21 (DE3) cells assessed as inhibition constant by SPR analysis
# [7] = target: T1, Replicase polyprotein 1ab; assay: Inhibition of SARS-CoV-2 Main protease extracted from Escherichia coli BL21 (DE3) cells measured for 60 mins by FRET based analysis
# [8] = target: T1, Replicase polyprotein 1ab; assay: Inhibition of SARS-CoV-2 3CL protease extracted from Escherichia coli BL21 (DE3) Rosetta cells using DabcylKNSTLQSGLRKE-Edan as substrate preincubated for 60 mins followed by substrate addition and measured after 20 mins by FRET assay
# [9] = target: T1, Replicase polyprotein 1ab; assay: Binding affinity to SARS-CoV-2 3CL protease assessed as dissociation constant by SPR analysis
structure (smiles),measurement,setting,value
C#CC(=O)NNC(=O)CCc1ccccc1C(=O)N[C@H](C)c1cccc2ccccc12,IC50,[1],0.09 µM
Cc1ccc(NC2CCN(C)CC2)cc1C(=O)N[C@H](C)c1cc(-c2cccs2)cc(-c2cccs2)c1,IC50,[2],0.18 µM
Cc1ccc(NC(=O)CN)cc1C(=O)N[C@H](C)c1cccc2ccccc12,IC50,[3],3.3 µM
Cc1ccc(NCCN2CCCCC2)cc1C(=O)N[C@H](C)c1cc(-c2cccs2)cc(-c2cccs2)c1,IC50,[2],0.11 µM
Cc1ccc(N2CCN(CCC(=O)O)CC2)cc1C(=O)NC1(c2cccc3ccccc23)CC1,IC50,[1],0.11 µM
Cc1ccc(NC(=O)[C@@H](N)CCCCN)cc1C(=O)N[C@H](C)c1cccc2ccccc12,IC50,[4],1.7 µM
Cc1ccc(N2CCNCC2)cc1C(=O)NC1(c2cccc3ccccc23)CC1,IC50,[1],0.03 µM
Cc1ccc(NC2CNC2)cc1C(=O)N[C@H](C)c1cc(-c2cccs2)cc(-c2cccs2)c1,IC50,[2],0.171 µM
Cc1ccc(N2CCN(C)CC2)cc1C(=O)NC1(c2cccc3ccccc23)CC1,IC50,[1],0.02 µM
Cc1ccc(Nc2ccncc2)cc1C(=O)N[C@H](C)c1cccc2ccccc12,IC50,[4],1.7 µM
Cc1ccc(NC(=O)CN2CCCCC2)cc1C(=O)N[C@H](C)c1cccc2ccccc12,IC50,[5],1.8 µM
Cc1ccc(N2C[C@H]3C[C@@H](C2)N3)cc1C(=O)NC1(c2cccc3ccccc23)CC1,IC50,[1],0.02 µM
Cc1ccc(NC(=O)C2CN(C)C2)cc1C(=O)N[C@H](C)c1cccc2ccccc12,IC50,[4],1.55 µM
Cc1ccc(NC(=O)CCN)cc1C(=O)N[C@H](C)c1cccc2ccccc12,IC50,[5],1.8 µM
Cc1ccc(NC(=O)[C@H]2CCCCN2)cc1C(=O)N[C@H](C)c1cccc2ccccc12,IC50,[3],0.3 µM
Cc1ccc(OCCN)cc1C(=O)N[C@H](C)c1cc(-c2cccs2)cc(-c2cccs2)c1,IC50,[2],0.06 µM
Cc1ccc(NC(=O)[C@@H](N)CN)cc1C(=O)N[C@H](C)c1cccc2ccccc12,IC50,[4],1.6 µM
Cc1ccc(OCCN(C)C)cc1C(=O)N[C@H](C)c1cc(-c2cnn(C)c2)cc(-c2cncs2)c1,Ki,[6],0.03 µM
Cc1ccc(OCCN(C)C)cc1C(=O)N[C@H](C)c1cc(-c2cnn(C)c2)cc(-c2cnn(CCN3CCOCC3)c2)c1,Ki,[6],0.02 µM
Cc1ccc(NC[C@H]2CCCCN2)cc1C(=O)N[C@H](C)c1cccc2ccccc12,IC50,[3],1.4 µM
Cc1ccc(NC(N)=O)cc1C(=O)N[C@H](C)c1cccc2ccccc12,IC50,[3],3.8 µM
Cc1ccc(NC2CCN(S(C)(=O)=O)CC2)cc1C(=O)N[C@H](C)c1cccc2ccccc12,IC50,[5],1.9 µM
Cc1ccc(OCCN2CCOCC2)cc1C(=O)N[C@H](C)c1cc(-c2cccs2)cc(-c2cccs2)c1,IC50,[2],0.36 µM
Cc1ccc(OCCN(C)C)cc1C(=O)N[C@H](C)c1cc(-c2cnn(C)c2)cc(-c2cnn(C(C)C)c2)c1,Ki,[6],0.04 µM
Cc1ccc(OCCN(C)C)cc1C(=O)N[C@H](C)c1cc(-c2cnn(C)c2)cc(-c2ccn(C)n2)c1,Ki,[6],0.04 µM
Cc1ccc(N2CC3CN(C)CC3C2)cc1C(=O)NC1(c2cccc3ccccc23)CC1 (centres undefined),IC50,[1],0.13 µM
Cc1ccc(N2CCN(C(=N)N)CC2)cc1C(=O)NC1(c2cccc3ccccc23)CC1,IC50,[1],0.14 µM
Cc1ccc(NC(=O)[C@@H](CN)NC[C@@H]2CCCN2)cc1C(=O)N[C@H](C)c1cccc2ccccc12,IC50,[5],1.9 µM
Cc1ccc(N)cc1C(=O)NC1(c2cccc3ccccc23)CC1,IC50,[1],0.18 µM
Cc1ccc(NC(=O)CN(C)C)cc1C(=O)N[C@H](C)c1cc(-c2cccs2)cc(-c2cccs2)c1,IC50,[2],0.11 µM
Cc1ccc(OCCN(C)C)cc1C(=O)N[C@H](C)c1cc(-c2cnn(C)c2)cc(-c2cnn(C(F)F)c2)c1,Ki,[6],0.03 µM
CNCCCNc1ccc(C)c(C(=O)N[C@H](C)c2cccc3ccccc23)c1,IC50,[4],1.5 µM
Cc1ccc(NC(=O)N2CCCN(C)CC2)cc1C(=O)N[C@H](C)c1cccc2ccccc12,IC50,[4],1.5 µM
Cc1ccc(NCC2CNC2)cc1C(=O)N[C@H](C)c1cc(-c2cccs2)cc(-c2cccs2)c1,IC50,[2],0.34 µM
Cc1ccc(OCCN(C)C)cc1C(=O)N[C@H](C)c1cc(-c2cnn(CF)c2)cc(-c2ccn(C)n2)c1,Ki,[6],0.03 µM
Cc1ccc(NC(=O)CN)cc1C(=O)N[C@H](C)c1cc(-c2cccs2)cc(-c2cccs2)c1,IC50,[2],0.14 µM
Cc1ccc(NC(=O)C2CCNCC2)cc1C(=O)N[C@H](C)c1cc(-c2cccs2)cc(-c2cccs2)c1,IC50,[2],0.163 µM
Cc1ccc(NC[C@H]2CCCN2)cc1C(=O)N[C@H](C)c1cccc2ccccc12,IC50,[3],0.9 µM
Cc1ccc(NC(=O)[C@@]2(C)CCCN2)cc1C(=O)N[C@H](C)c1cccc2ccccc12,IC50,[5],1.8 µM
Cc1ccc(NC(=O)C2(N)CC2)cc1C(=O)N[C@H](C)c1cccc2ccccc12,IC50,[3],3.8 µM
Cc1ccc(OCCN(C)C)cc1C(=O)N[C@H](C)c1cc(-c2cnn(C)c2)cc(-c2cnn(C3CC3)c2)c1,Ki,[6],0.03 µM
CC(=O)Nc1cccc(Nc2ccc(C)c(C(=O)NC3(c4cccc5ccccc45)CC3)c2)c1,IC50,[1],0.5 µM
Cc1ccc(OCCN(C)C)cc1C(=O)N[C@H](C)c1cc(-c2cnn(CCN3CCOCC3)c2)cc(-c2ccn(C)n2)c1,Ki,[6],0.04 µM
Cc1ccc(N2CCNC(C)C2)cc1C(=O)NC1(c2cccc3ccccc23)CC1 (centres undefined),IC50,[1],0.07 µM
Cc1ccc(OCCN2CCCC2)cc1C(=O)N[C@H](C)c1cc(-c2cccs2)cc(-c2cccs2)c1,IC50,[2],0.07 µM
Cc1ccc(OCCN(C)C)cc1C(=O)N[C@H](C)c1cc(-c2cccs2)cc(-c2ccc(CN)s2)c1,Ki,[6],0.07 µM
Cc1ccc(N2CC3CNCC3C2)cc1C(=O)NC1(c2cccc3ccccc23)CC1 (centres undefined),IC50,[1],0.03 µM
Cc1ccc(NC[C@@H]2CCCN2)cc1C(=O)N[C@H](C)c1cccc2ccccc12,IC50,[3],0.8 µM
Cc1ccc(NC2CCN(C[C@H]3CCCN3)CC2)cc1C(=O)N[C@H](C)c1cccc2ccccc12,IC50,[5],1.8 µM
Cc1ccc(NC(=O)[C@@H](N)CCN)cc1C(=O)N[C@H](C)c1cccc2ccccc12,IC50,[5],1.9 µM
Cc1ccc(NC(=O)[C@@H]2CCCCN2)cc1C(=O)N[C@H](C)c1cccc2ccccc12,IC50,[3],1.3 µM
Cc1ccc(NC(=O)N2CCN(C)CC2)cc1C(=O)N[C@H](C)c1cccc2ccccc12,IC50,[4],1.6 µM
Cc1ccc(N2CCN(CC(=O)O)CC2)cc1C(=O)NC1(c2cccc3ccccc23)CC1,IC50,[1],0.04 µM
Cc1ccc(OCC[N+](C)(C)C)cc1C(=O)N[C@H](C)c1cc(-c2cccs2)cc(-c2cccs2)c1,IC50,[2],0.13 µM
Cc1ccc(NC[C@@H]2CCCCN2)cc1C(=O)N[C@H](C)c1cccc2ccccc12,IC50,[3],0.9 µM
Cc1ccc(NC[C@@H]2CCCN2C)cc1C(=O)N[C@H](C)c1cccc2ccccc12,IC50,[3],0.9 µM
COCn1cc(-c2cc(-c3cnn(C(F)F)c3)cc([C@@H](C)NC(=O)c3cc(OCCN(C)C)ccc3C)c2)cn1,Ki,[6],0.08 µM
Cc1ccc(NCC(C)(C)N)cc1C(=O)N[C@H](C)c1cccc2ccccc12,IC50,[5],1.8 µM
Cc1ccc(N)cc1C(=O)N[C@H](C)c1cc(-c2cccs2)cc(-c2cccs2)c1,IC50,[2],0.17 µM
Cc1ccc(NCC2(C)CCN2)cc1C(=O)N[C@H](C)c1cccc2ccccc12 (mixture of isomers),IC50,[7],0.8 µM
Cc1ccc(NC(=O)C2CN(C)CCN2C)cc1C(=O)N[C@H](C)c1cccc2ccccc12 (mixture of isomers),IC50,[5],1.7 µM
Cc1ccc(NC(=O)C2CN(C(C)C)CCN2)cc1C(=O)N[C@H](C)c1cccc2ccccc12 (mixture of isomers),IC50,[7],1.4 µM
Cc1ccc(NCC2CCN2)cc1C(=O)N[C@H](C)c1cccc2ccccc12 (mixture of isomers),IC50,[3],0.9 µM
Cc1ccc(NCC2CCNC2)cc1C(=O)N[C@H](C)c1cccc2ccccc12 (mixture of isomers),IC50,[4],1.5 µM
Cc1ccc(NC(=O)C2CCN2)cc1C(=O)N[C@H](C)c1cccc2ccccc12 (mixture of isomers),IC50,[5],1.8 µM
Cc1ccc(NC(=O)C2CN(C)CCN2)cc1C(=O)N[C@H](C)c1cccc2ccccc12 (mixture of isomers),IC50,[4],1.7 µM
CCC(C(=O)Nc1cc(NC2CCOCC2)ccc1C)n1cccc2nc(SCc3ccc(F)cc3)nc1-2 (racemic),IC50,[8],0.6 µM
CCC(C(=O)Nc1cc(NC2CCNC2)ccc1C)n1cccc2nc(SCc3ccc(F)cc3)nc1-2 (racemic),Kd,[9],0.25 µM
CCC(C(=O)Nc1cc(NC2CCOC2)ccc1C)n1cc(F)cc2nc(SCc3ccc(F)cc3)nc1-2 (racemic),IC50,[8],1.86 µM
Cc1ccccc1C(=O)NC(C)c1cccc2ccccc12 (racemic),IC50,[1],23.5 µM
CCC(C(=O)Nc1cc(NC2CCOC2)ccc1C)n1cc(Cl)cc2nc(SCc3ccc(F)cc3)nc1-2 (racemic),IC50,[8],0.16 µM
CCC(C(=O)Nc1cc(NC2CCOCC2)ccc1C)n1cc(F)cc2nc(SCc3ccc(F)cc3)nc1-2 (racemic),IC50,[8],1.4 µM
CCC(C(=O)Nc1cc(NC2COC2)ccc1C)n1cccc2nc(SCc3ccc(F)cc3)nc1-2 (racemic),IC50,[8],0.3 µM
CCC(C(=O)Nc1ccccc1C)n1cc(F)cc2nc(SCc3ccc(F)cc3)nc1-2 (racemic),IC50,[8],5.09 µM
